From BindingDB's records for doi:10.1021/jm00398a022 (University of Wisconsin, 1988)

Biological target: Cathepsin D (Oryctolagus cuniculus)
Assay: Inhibition of rabbit liver cathepsin D at pH 4.0

- Ki: 3.5 µM
Compound: COC(=O)[C@H](Cc1ccccc1)NC(=O)[C@H](CC(C)C)NC(=O)CC(O)[C@H](CC(C)C)NC(=O)[C@H](Cc1c[nH]cn1)NC(=O)COC(=O)C(C)(C)C (stereo partly drawn) [POA-His-Sta-Leu-PheOMe]
